Experimental data taken from patent publication US10077284B2, “UBA5 inhibitors” (THE GOVERNING COUNCIL OF THE UNIVERSITY OF TORONTO, priority 2014, dated 2018).
Values joined by “and” are separate entries in the source; they are usually repeats but may differ in a detail not shown here. Equal entries are not always repeated. Where two headings read alike, the source gives them in different places.

Tests used:
GST-UBA5 = biological target: T1, GST-UBA5 (Homo sapiens, UniProt Q9GZZ9); assay: UBA5 transthiolation assay (UFC1-UFM1 conjugate formation); format: biochemical
T1 construct: made in house
T1 sequence (Q9GZZ9 whole entry): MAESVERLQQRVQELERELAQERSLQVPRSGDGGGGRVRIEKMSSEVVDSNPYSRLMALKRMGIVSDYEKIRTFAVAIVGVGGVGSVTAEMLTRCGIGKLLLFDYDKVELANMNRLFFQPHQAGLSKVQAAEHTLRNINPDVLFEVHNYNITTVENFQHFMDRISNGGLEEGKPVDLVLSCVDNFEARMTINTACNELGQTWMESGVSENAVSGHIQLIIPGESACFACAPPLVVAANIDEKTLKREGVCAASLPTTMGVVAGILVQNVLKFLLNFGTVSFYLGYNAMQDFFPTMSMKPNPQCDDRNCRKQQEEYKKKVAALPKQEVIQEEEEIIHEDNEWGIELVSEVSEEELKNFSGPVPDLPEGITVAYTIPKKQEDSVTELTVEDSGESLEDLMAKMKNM
Procedure: (§3) Initial rates were recorded over 30 second time intervals from 0 to 2.5 min (normal kinetics) or 0 to 5 min (inhibition kinetics). Reactions were initiated by the addition of ATP and stopped using 4× Laemmli sample buffer (BioRad). The generated protein conjugates were separated on a 10% non-degenerating SDS-polyacrylamide gel (4-15% gels were used for the UAE transthiolaton assay), followed by Western blot analysis, with the exception of GST-UBA5 where protein bands were detected using Coomassie™ Brilliant Blue R-250 staining or Stain-Free gel imaging for the enzymatic assays (Bio-Rad). Transfers for the UAE and NAE immunoblots were performed using nitrocellulose membranes and blocking and blotting was performed as described above with cellular protein extracts. The His6-tagged Ub-UBCH6 complex was detected using an anti-His mouse monoclonal primary antibody (1:500, abcam). A rabbit anti-NEDD8 polyclonal primary antibody (1:500, BostonBiochem) was used for the detection of the E2-NEDD8 complexes. […] Inhibitory data was fit to a dose-response curve (Y=Bottom+(Top−Bottom)/(1+10^(X-Log IC50))) using GraphPad Prism 6.

[1] = biological target: T2, NEDD8 activating enzyme (NAE) (Homo sapiens, UniProt Q8TBC4); assay: NAE transthiolation assay (NEDD8 transfer to UbcH12); format: biochemical
T2 construct: purchased Boston Biochem
T2 sequence (Q8TBC4 1-463): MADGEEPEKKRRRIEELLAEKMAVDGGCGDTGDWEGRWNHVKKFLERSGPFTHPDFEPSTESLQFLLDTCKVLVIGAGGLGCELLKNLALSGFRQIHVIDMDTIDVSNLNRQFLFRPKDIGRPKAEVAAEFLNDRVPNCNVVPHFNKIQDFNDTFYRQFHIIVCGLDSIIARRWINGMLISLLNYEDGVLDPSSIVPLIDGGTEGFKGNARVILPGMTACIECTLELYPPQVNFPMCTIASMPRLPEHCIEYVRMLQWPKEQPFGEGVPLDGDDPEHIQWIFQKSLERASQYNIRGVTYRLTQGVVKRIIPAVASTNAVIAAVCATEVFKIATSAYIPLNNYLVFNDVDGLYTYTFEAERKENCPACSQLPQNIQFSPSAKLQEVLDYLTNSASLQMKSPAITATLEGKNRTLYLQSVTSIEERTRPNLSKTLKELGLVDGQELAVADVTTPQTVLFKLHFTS
T2 sequence (Q13564 1-534 partner): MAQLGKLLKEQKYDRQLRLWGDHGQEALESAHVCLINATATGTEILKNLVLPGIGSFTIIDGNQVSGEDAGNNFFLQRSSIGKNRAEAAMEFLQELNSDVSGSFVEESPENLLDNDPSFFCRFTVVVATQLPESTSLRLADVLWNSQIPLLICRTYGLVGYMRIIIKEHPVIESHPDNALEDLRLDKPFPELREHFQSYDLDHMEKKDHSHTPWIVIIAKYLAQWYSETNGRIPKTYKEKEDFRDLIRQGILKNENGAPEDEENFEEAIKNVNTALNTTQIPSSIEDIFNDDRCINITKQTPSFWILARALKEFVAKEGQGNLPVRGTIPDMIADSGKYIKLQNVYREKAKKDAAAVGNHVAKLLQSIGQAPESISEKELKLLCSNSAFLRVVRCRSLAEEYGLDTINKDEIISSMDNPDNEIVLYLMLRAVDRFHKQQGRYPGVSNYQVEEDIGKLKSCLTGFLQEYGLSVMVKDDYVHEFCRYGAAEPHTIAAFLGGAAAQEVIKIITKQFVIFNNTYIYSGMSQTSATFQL
Procedure: as §3

UBA5 = UBA5 (Homo sapiens, UniProt Q9GZZ9); conditions: in the presence of 1.5.Zn (5 μM)
Sequence of UBA5 (Q9GZZ9 whole entry): as the sequence (Q9GZZ9 whole entry) above
Procedure: Initial rates were recorded over 30 second time intervals from 0 to 2.5 min (normal kinetics) or 0 to 5 min (inhibition kinetics). Reactions were initiated by the addition of ATP and stopped using 4× Laemmli sample buffer (BioRad). The generated protein conjugates were separated on a 10% […] SDS-polyacrylamide gel (4-15% gels were used for the UAE transthiolaton assay), followed by Western blot analysis, with the exception of GST-UBA5 where protein bands were detected using Coomassie™ Brilliant Blue R-250 staining or Stain-Free gel imaging for the enzymatic assays (Bio-Rad). Transfers for the UAE and NAE immunoblots were performed using nitrocellulose membranes and blocking and blotting was performed as described above with cellular protein extracts. The His6-tagged Ub-UBCH6 complex was detected using an anti-His mouse monoclonal primary antibody (1:500, abcam). A rabbit anti-NEDD8 polyclonal primary antibody (1:500, BostonBiochem) was used for the detection of the E2-NEDD8 complexes. […] Inhibitory data was fit to a dose-response curve (Y=Bottom+(Top−Bottom)/(1+10^(X-Log IC50))) using GraphPad Prism 6.
Concentrations of UBA5 (1 μM), UFM1 (10 μM), and UFC1 (10 μM) were held constant, while the concentration of ATP was varied from 0 to 1 mM. […] Protein concentrations were held constant as in (A), and concentrations of ATP were varied from 0 to 1 mM (n=3). […]

[2] = system: UFM1 conjugation in K562 cells; conditions: K562, increasing concentrations, 72 h
Procedure: (§1) Cells were washed twice with cold PBS and protein extracts were prepared using RIPA buffer with a protease and phosphatase inhibitor cocktail (Roche #11836153001, #04906845001). Protein concentrations were determined using the BCA protein quantification technique (BCA Protein assay kit, Pierce). In each assay, 30 μg of whole cell protein extract was resolved on a 10% SDS-polyacrylamide gel and transferred to a PVDF membrane (Bio-Rad). The membranes were blocked with SuperBlock (Thermo scientific; No. 37515) for at least 1 hr followed by an overnight incubation in primary antibody. Blots were probed with antibodies against UBA5 (abcam; ab109227) and UFM-1 (abcam; ab09305) in a 1:1000 dilution, and anti-β-actin (1:5000 dilution; Cell Signaling, 3700S) was used as a loading control. […] The bands were visualized and analyzed using Image lab software (Bio-Rad).
(§2) The intracellular inhibition of UBA5 was evaluated in order to investigate its use as a molecular tool to study cellular UFMylation by UBA5 inactivation. […] The graphical representation of the intracellular inhibition of UFM1 protein conjugation (evaluated using Western Blot analysis, described in detail within the Materials and Methods submitted in May 2014) is shown in FIG. 26. […]

[3] = system: UFM1 conjugation in Sk-Luci6 cells; conditions: Sk-Luci6, increasing concentrations, 72 h
Procedure: as §1, §2

[4] = system: Sk-Luci6, A549 and MRC-9 cells; conditions: all treated cells
Source text: Confluence of live cells was estimated visually under phase contrast microscopy.
Sk-Luci6, A549 and MRC-9 were each plated as 5×10^3 cells per well and grown in 10% serum on a 96 well plate. […] Cell numbers were obtained at 24 hr time points over a period of 72 hrs using trypan blue exclusion assay (BioRad; #145-0021) and counted using a hemocytometer.

## Nc1ncnc2c1ncn2[C@@H]1O[C@H](C(=O)NCCCCCC(=O)N2CCNCCNCCNCC2)[C@@H](O)[C@H]1O.O=S(=O)([O-])C(F)(F)F.O=S(=O)([O-])C(F)(F)F.[Zn+2] [Compound 1.5.Zn, (2S,3S,4R,5R)—N-(6-(1,4,7,10-tetraazacyclododecan-1-yl)-6-oxohexyl)-5-(6-amino-9H-purin-9-yl)-3,4-dihydroxytetrahydrofuran-2-carboxamide zinc trifluoromethanesulfonate]
GST-UBA5; Table 1, transthiolation enzymatic assay, read-out: IC50
  IC50: 4 µM
GST-UBA5; Table 5, n = 3, read-out: IC50
  IC50: 4 µM
GST-UBA5; comparison between series
  relative inhibitor activity against UBA5: most potent zinc-coordinated complex
GST-UBA5; read-out: IC50, inhibition of UFC1-UFM1 conjugate formation
  IC50: 4.1 µM and 4 µM
[1]; n=3-6
  IC50: 103 µM and 66.8 µM
[1]; ratio of IC50
  selectivity for UBA5 over NAE: > 20 fold and ~20 fold
UBA5
  VMAX: 0.988 ± 0.137 pmol/min
  kCAT: 0.00188 ± 0.000267 s⁻¹
[2]
  UFMylation levels: Decreased UFMylation levels
[3]
  UFMylation levels: Decreased UFMylation levels
[4]
  cell death: no cell death
